Cc1c(-c2ccccc2)oc2c(C(=O)OCCN3CCCCC3)cccc2c1=O.Cl
solubility (mole fraction)
Conditions | 278.15 K | 283.15 K | 288.15 K | 293.15 K | 298.15 K | 303.15 K | 308.15 K | 313.15 K | 318.15 K | 323.15 K
in 2-ethoxyethanol | 0.000121 | 0.000162 | 0.000173 | 0.000211 | 0.000252 | 0.000309 | 0.000362 | 0.00044 | 0.000533 | 0.000636
in 2-methoxyethanol | 0.000431 | 0.000521 | 0.000578 | 0.000675 | 0.000788 | 0.000931 | 0.00107 | 0.00129 | 0.00152 | 0.00182
in 2-propoxyethanol | 0.000193 | 0.000212 | 0.000255 | 0.000303 | 0.000355 | 0.000413 | 0.000509 | 0.000593 | 0.000704 | 0.000881
in DMSO | – | – | – | 0.000626 | 0.000775 | 0.000911 | 0.00107 | 0.00129 | 0.00152 | 0.0018
in NMP | 0.000254 | 0.000334 | 0.00039 | 0.00047 | 0.000548 | 0.000646 | 0.000768 | 0.000919 | 0.00109 | 0.0013
in acetonitrile | 2.88e-05 | 3.71e-05 | 4.2e-05 | 4.95e-05 | 6.13e-05 | 7.58e-05 | 8.98e-05 | 0.000112 | 0.000141 | 0.000174
in ethanol | 8.81e-05 | 9.89e-05 | 0.000117 | 0.000143 | 0.000182 | 0.00022 | 0.000284 | 0.000364 | 0.000452 | 0.000565
in ethylene glycol | 0.000868 | 0.00115 | 0.00136 | 0.00161 | 0.002 | 0.00236 | 0.00284 | 0.00347 | 0.00415 | 0.005
in methanol | 0.000529 | 0.000637 | 0.000808 | 0.000961 | 0.00116 | 0.0014 | 0.00169 | 0.00207 | 0.00255 | 0.00317
in n-butanol | 3.52e-05 | 4.51e-05 | 6.1e-05 | 9.1e-05 | 0.000124 | 0.000171 | 0.000223 | 0.000303 | 0.000374 | 0.000468
in n-propanol | 2.87e-05 | 3.76e-05 | 4.58e-05 | 6.56e-05 | 0.000107 | 0.000142 | 0.000188 | 0.000252 | 0.000331 | 0.000425
in water | 0.000219 | 0.00026 | 0.000301 | 0.000361 | 0.000442 | 0.000526 | 0.000629 | 0.000757 | 0.00092 | 0.00114

Source: BigSolDB 2.1
